Assay results as given in US20180213790A1, “COMPOSITIONS AND USES THEREOF FOR CONTROLLING ECTOPARASITES IN NON-HUMAN MAMMALS” (priority 2015, published 2018).
Where two headings read alike, the source gives them in different places.

Assays:
Ctenocephalides felis = details: for EC50 (ppm) Total amount of actives (ppm): total of dinotefuran and fipronil; for EC50 (ppm) Dinotefuran: amount of dinotefuran
Protocol: Insecticidal activity of dinotefuran, fipronil and dinotefuran/fipronil combinations at different ratios was evaluated using an in vitro coated-vial bioassay. Serial dilutions of test compounds, individually or in combination, were conducted with an acetone/triton solution+0.5% DMSO from a dinotefuran starting dose at 100 ppm and from a fipronil starting dose at 50 ppm. Vials were treated with dinotefuran, fipronil, dinotefuran/fipronil (tested at 6 ratios). Vials were capped and allowed to dry for at least 4 hours before the addition of 10 newly emerged (0-7 days old) unfed adult fleas (Ctenocephalides felis). Flea susceptibility was assessed at 6, 24 and 48 hours post-exposure by evaluating mortality. The EC50 and EC90 values were calculated based on Median-Effect Principle (Chu, 2006. Theoretical Basis, Experimental design, and Computerized Simulation of Synergism and Antagonism in drug Combination studies. Pharmacological reviews, 58(3):621-681) using COMPUSYN (version 1.0). EC50 and EC90 are defined as the amount of drugs, which causes respectively a 50% and 90% flea mortality. Combination indexes (CI) at EC50 and EC90 were calculated to characterize the interaction of each combination: synergism (CI<1), antagonism (CI>1) and additive effect (CI=1) and a combination index (CI) values were calculated at 48 hours of exposure to assess the potential for synergistic activity (Chou, Pharmacol. Rev. 2006, 58, 621-681; Chou, Drug combination studies and their synergy quantification using the Chou-Talalay method, Cancer. Res., 2010, 70: 440-446).

Rhipicephalus sanguineus = assay: in vitro coated-vial bioassay, activity against ticks; details: for mortality at 0.206 ppm / mortality at 0.617 ppm / mortality at 1.852 ppm / mortality at 5.556 ppm / mortality at 16.667 ppm / mortality at 50 ppm: Rhipicephalus sanguineus; for mortality at 0.206 ppm: D 0.000 ppm + F 0.206 ppm; for mortality at 0.617 ppm: D 0.000 ppm + F 0.617 ppm; for mortality at 1.852 ppm: D 0.000 ppm + F 1.852 ppm; for mortality at 5.556 ppm: D 0.000 ppm + F 5.556 ppm; for mortality at 16.667 ppm: D 0.000 ppm + F 16.667 ppm; for mortality at 50 ppm: D 0.000 ppm + F 50.000 ppm; for EC50 (ppm) Total amount of actives (ppm): total of dinotefuran and fipronil
Protocol: Tick susceptibility was assessed at 12, 24 and 48 hours post-exposure by evaluating mortality.

[1] = 12 H, read-out: Mortality (%) 12 H
[2] = 24 H, read-out: Mortality (%) 24 H
[3] = 48 H, read-out: Mortality (%) 48 H

**Q.** For N#Cc1nn(-c2c(Cl)cc(C(F)(F)F)cc2Cl)c(N)c1[S+]([O-])C(F)(F)F (racemic) [D:F = 0:1, (RS)-5-amino-1-[2,6-dichloro-4-(trifluoromethyl)phenyl]-4-(trifluoromethylsulfinyl)-1H-pyrazole-3-carbonitrile], which “EC50 (ppm) Fiproml” value (Ctenocephalides felis; Table 2, fleas, amount of fipronil, alone or in the combination) is on record?
**A.** Its value is 13.83 ppm.

**Q.** What about the “EC50 (ppm) Total amount of actives (ppm)” value (Ctenocephalides felis; Table 2, fleas) of the same compound?
**A.** The value was 13.83 ppm.

**Q.** What about the mortality at 0.206 ppm (Rhipicephalus sanguineus; [1]) of the same compound?
**A.** Its mortality at 0.206 ppm is 0%.

**Q.** What about the mortality at 0.206 ppm (Rhipicephalus sanguineus; [2]) of the same compound?
**A.** Its mortality at 0.206 ppm is 0%.

**Q.** What about the mortality at 0.206 ppm (Rhipicephalus sanguineus; [3]) of the same compound?
**A.** Its mortality at 0.206 ppm is 0%.

**Q.** What about the mortality at 0.617 ppm (Rhipicephalus sanguineus; [1]) of the same compound?
**A.** Its mortality at 0.617 ppm is 0%.

**Q.** And the mortality at 0.617 ppm (Rhipicephalus sanguineus; [2])?
**A.** The mortality at 0.617 ppm was 0%.

**Q.** What about the mortality at 0.617 ppm (Rhipicephalus sanguineus; [3]) of the same compound?
**A.** The mortality at 0.617 ppm was 10%.

**Q.** And the mortality at 1.852 ppm (Rhipicephalus sanguineus; [1])?
**A.** The mortality at 1.852 ppm was 0%.

**Q.** And the mortality at 1.852 ppm (Rhipicephalus sanguineus; [2])?
**A.** Its mortality at 1.852 ppm is 0%.

**Q.** And the mortality at 1.852 ppm (Rhipicephalus sanguineus; [3])?
**A.** The mortality at 1.852 ppm was 0%.

**Q.** And the mortality at 5.556 ppm (Rhipicephalus sanguineus; [1])?
**A.** The mortality at 5.556 ppm was 0%.

**Q.** What about the mortality at 5.556 ppm (Rhipicephalus sanguineus; [2]) of the same compound?
**A.** The mortality at 5.556 ppm was 20%.

**Q.** And the mortality at 5.556 ppm (Rhipicephalus sanguineus; [3])?
**A.** Its mortality at 5.556 ppm is 60%.

**Q.** What about the mortality at 16.667 ppm (Rhipicephalus sanguineus; [1]) of the same compound?
**A.** The mortality at 16.667 ppm was 60%.

**Q.** What about the mortality at 16.667 ppm (Rhipicephalus sanguineus; [2]) of the same compound?
**A.** The mortality at 16.667 ppm was 80%.

**Q.** And the mortality at 16.667 ppm (Rhipicephalus sanguineus; [3])?
**A.** The mortality at 16.667 ppm was 100%.

**Q.** What about the mortality at 50 ppm (Rhipicephalus sanguineus; [1]) of the same compound?
**A.** The mortality at 50 ppm was 60%.

**Q.** What about the mortality at 50 ppm (Rhipicephalus sanguineus; [2]) of the same compound?
**A.** Its mortality at 50 ppm is 100%.

**Q.** And the mortality at 50 ppm (Rhipicephalus sanguineus; [3])?
**A.** Its mortality at 50 ppm is 100%.

**Q.** What about the “EC50 (ppm) Fipronil” value (Rhipicephalus sanguineus; Table 5, ticks, amount of fipronil) of the same compound?
**A.** The value was 3.77 ppm.

**Q.** And the “EC50 (ppm) Total amount of actives (ppm)” value (Rhipicephalus sanguineus; Table 5, ticks)?
**A.** The value was 3.77 ppm.

**Q.** With CN/C(=N\[N+](=O)[O-])NCC1CCOC1 (stereo not drawn) [D:F = 1:0, 2-methyl-l-nitro-3-[(tetrahydro-3-furanyl)methyl] guanidine] as the compound, how does the “activity against fleas (in words)” value (Ctenocephalides felis) read?
**A.** The value was “more potent than fipronil”.

**Q.** What about the “Mortality (%) 6 H” value (Ctenocephalides felis; D 0.412 ppm + F 0.000 ppm) of the same compound?
**A.** The value was 0%.

**Q.** And the “Mortality (%) 24 H” value (Ctenocephalides felis; D 0.412 ppm + F 0.000 ppm)?
**A.** The value was 10%.

**Q.** And the “Mortality (%) 48 H” value (Ctenocephalides felis; D 0.412 ppm + F 0.000 ppm)?
**A.** Its value is 0%.

**Q.** And the “Mortality (%) 6 H” value (Ctenocephalides felis; D 1.235 ppm + F 0.000 ppm)?
**A.** Its value is 0%.

**Q.** And the “Mortality (%) 24 H” value (Ctenocephalides felis; D 1.235 ppm + F 0.000 ppm)?
**A.** The value was 10%.

**Q.** What about the “Mortality (%) 48 H” value (Ctenocephalides felis; D 1.235 ppm + F 0.000 ppm) of the same compound?
**A.** Its value is 20%.

**Q.** What about the “Mortality (%) 6 H” value (Ctenocephalides felis; D 3.704 ppm + F 0.000 ppm) of the same compound?
**A.** The value was 0%.

**Q.** And the “Mortality (%) 24 H” value (Ctenocephalides felis; D 3.704 ppm + F 0.000 ppm)?
**A.** The value was 20%.

**Q.** What about the “Mortality (%) 48 H” value (Ctenocephalides felis; D 3.704 ppm + F 0.000 ppm) of the same compound?
**A.** Its value is 50%.

**Q.** And the “Mortality (%) 6 H” value (Ctenocephalides felis; D 11.111 ppm + F 0.000 ppm)?
**A.** Its value is 10%.

**Q.** And the “Mortality (%) 24 H” value (Ctenocephalides felis; D 11.111 ppm + F 0.000 ppm)?
**A.** The value was 30%.

**Q.** What about the “Mortality (%) 48 H” value (Ctenocephalides felis; D 11.111 ppm + F 0.000 ppm) of the same compound?
**A.** Its value is 60%.

**Q.** And the “Mortality (%) 6 H” value (Ctenocephalides felis; D 33.333 ppm + F 0.000 ppm)?
**A.** The value was 0%.

**Q.** What about the “Mortality (%) 24 H” value (Ctenocephalides felis; D 33.333 ppm + F 0.000 ppm) of the same compound?
**A.** Its value is 10%.

**Q.** What about the “Mortality (%) 48 H” value (Ctenocephalides felis; D 33.333 ppm + F 0.000 ppm) of the same compound?
**A.** The value was 80%.

**Q.** What about the “Mortality (%) 6 H” value (Ctenocephalides felis; D 100.000 ppm + F 0.000 ppm) of the same compound?
**A.** The value was 40%.

**Q.** And the “Mortality (%) 24 H” value (Ctenocephalides felis; D 100.000 ppm + F 0.000 ppm)?
**A.** Its value is 80%.

**Q.** What about the “Mortality (%) 48 H” value (Ctenocephalides felis; D 100.000 ppm + F 0.000 ppm) of the same compound?
**A.** The value was 90%.

**Q.** What about the “EC50 (ppm) Dinotefuran” value (Ctenocephalides felis; Table 2, fleas, alone or in the combination) of the same compound?
**A.** Its value is 8.05 ppm.

**Q.** What about the “EC50 (ppm) Total amount of actives (ppm)” value (Ctenocephalides felis; Table 2, fleas) of the same compound?
**A.** Its value is 8.05 ppm.

**Q.** And the “EC50 (ppm) Dinotefuran” value (Ctenocephalides felis; Table 3 (head EC50, text says EC90), fleas)?
**A.** Its value is 50.87 ppm.

**Q.** And the “acaricidal activity against ticks (in words)” value (Rhipicephalus sanguineus)?
**A.** The value was “not active”.

**Q.** What about the “Mortality (%) 12 H” value (Rhipicephalus sanguineus; D 0.412 ppm + F 0.000 ppm, 12 H) of the same compound?
**A.** Its value is 0%.

**Q.** What about the “Mortality (%) 24 H” value (Rhipicephalus sanguineus; D 0.412 ppm + F 0.000 ppm, 24 H) of the same compound?
**A.** Its value is 0%.

**Q.** And the “Mortality (%) 48 H” value (Rhipicephalus sanguineus; D 0.412 ppm + F 0.000 ppm, 48 H)?
**A.** Its value is 0%.

**Q.** What about the “Mortality (%) 12 H” value (Rhipicephalus sanguineus; D 1.235 ppm + F 0.000 ppm, 12 H) of the same compound?
**A.** The value was 0%.

**Q.** What about the “Mortality (%) 24 H” value (Rhipicephalus sanguineus; D 1.235 ppm + F 0.000 ppm, 24 H) of the same compound?
**A.** The value was 0%.

**Q.** What about the “Mortality (%) 48 H” value (Rhipicephalus sanguineus; D 1.235 ppm + F 0.000 ppm, 48 H) of the same compound?
**A.** Its value is 0%.

**Q.** And the “Mortality (%) 12 H” value (Rhipicephalus sanguineus; D 3.704 ppm + F 0.000 ppm, 12 H)?
**A.** Its value is 0%.

**Q.** What about the “Mortality (%) 24 H” value (Rhipicephalus sanguineus; D 3.704 ppm + F 0.000 ppm, 24 H) of the same compound?
**A.** Its value is 0%.

**Q.** What about the “Mortality (%) 48 H” value (Rhipicephalus sanguineus; D 3.704 ppm + F 0.000 ppm, 48 H) of the same compound?
**A.** The value was 0%.

**Q.** What about the “Mortality (%) 12 H” value (Rhipicephalus sanguineus; D 11.111 ppm + F 0.000 ppm, 12 H) of the same compound?
**A.** The value was 0%.

**Q.** What about the “Mortality (%) 24 H” value (Rhipicephalus sanguineus; D 11.111 ppm + F 0.000 ppm, 24 H) of the same compound?
**A.** Its value is 0%.

**Q.** What about the “Mortality (%) 48 H” value (Rhipicephalus sanguineus; D 11.111 ppm + F 0.000 ppm, 48 H) of the same compound?
**A.** The value was 0%.

**Q.** And the “Mortality (%) 12 H” value (Rhipicephalus sanguineus; D 33.333 ppm + F 0.000 ppm, 12 H)?
**A.** Its value is 0%.

**Q.** And the “Mortality (%) 24 H” value (Rhipicephalus sanguineus; D 33.333 ppm + F 0.000 ppm, 24 H)?
**A.** The value was 0%.

**Q.** What about the “Mortality (%) 48 H” value (Rhipicephalus sanguineus; D 33.333 ppm + F 0.000 ppm, 48 H) of the same compound?
**A.** The value was 0%.

**Q.** What about the “Mortality (%) 12 H” value (Rhipicephalus sanguineus; D 100.000 ppm + F 0.000 ppm, 12 H) of the same compound?
**A.** The value was 0%.

**Q.** And the “Mortality (%) 24 H” value (Rhipicephalus sanguineus; D 100.000 ppm + F 0.000 ppm, 24 H)?
**A.** Its value is 0%.

**Q.** And the “Mortality (%) 48 H” value (Rhipicephalus sanguineus; D 100.000 ppm + F 0.000 ppm, 48 H)?
**A.** The value was 0%.

**Q.** And the “EC50 (ppm) Dinotefuran” value (Rhipicephalus sanguineus; Table 5, ticks, amount of dinotefuran)?
**A.** The value was >100 ppm.

**Q.** What about the “EC50 (ppm) Total amount of actives (ppm)” value (Rhipicephalus sanguineus; Table 5, ticks) of the same compound?
**A.** Its value is 100 ppm.
